Data published in ChEMBL document CHEMBL3885881, “DrugMatrix”.

Species on record: Rattus norvegicus
Test: DrugMatrix - Regimen: Daily Repeat
Assay type: toxicity, organism-based, Sprague-Dawley
Parameters: regimen Daily Repeat, gender Male, age 6-8 weeks
Settings: in vivo, po, route oral GAVAGE, […]; for ABSOLUTE BASOPHIL / ABSOLUTE EOSINOPHIL / ABSOLUTE LYMPHOCYTE / ABSOLUTE MONOCYTE / ABSOLUTE SEGMENTED NEUTROPHIL / BASOPHIL / EOSINOPHIL / ERYTHROCYTE COUNT / HEMATOCRIT / HEMOGLOBIN / LEUKOCYTE COUNT / LYMPHOCYTE / MEAN CORPUSCULAR HEMOGLOBIN / MEAN CORPUSCULAR HEMOGLOBIN CONCENTRATION / MEAN CORPUSCULAR VOLUME / MONOCYTE / NEUTROPHIL / NUCLEATED RED BLOOD CELLS / PLATELET COUNT: tissue Blood; for ALANINE AMINOTRANSFERASE / ALBUMIN / ALKALINE PHOSPHATASE / ASPARTATE AMINOTRANSFERASE / BLOOD UREA NITROGEN / CARBON DIOXIDE / CHLORIDE / CHOLESTEROL / CREATINE PHOSPHOKINASE / CREATININE / GLUCOSE / LACTATE DEHYDROGENASE / LIPASE / PHOSPHORUS / POTASSIUM / SODIUM / TOTAL BILIRUBIN / TOTAL PROTEIN / URIC ACID: tissue Plasma
[1] = 24 mg/kg, 72 h, dose level Low, time 3 day
[2] = 24 mg/kg, 120 h, dose level Low, time 5 day
[3] = 770 mg/kg, 72 h, dose level High, time 3 day
[4] = 770 mg/kg, 120 h, dose level High, time 5 day

## COc1c(N2CCNC(C)C2)c(F)cc2c(=O)c(C(=O)O)cn(C3CC3)c12 (configuration not stated) [GATIFLOXACIN]
[1]
  ABSOLUTE BASOPHIL: 0 CELLS/uL
  ABSOLUTE EOSINOPHIL: 38.67 CELLS/uL
  ABSOLUTE LYMPHOCYTE: 12036 CELLS/uL
  ABSOLUTE MONOCYTE: 222.67 CELLS/uL
  ABSOLUTE SEGMENTED NEUTROPHIL: 769.33 CELLS/uL
  BASOPHIL: 0%
  EOSINOPHIL: 0.33%
  ERYTHROCYTE COUNT: 5.26 x10E6/uL
  HEMATOCRIT: 34.07%
  HEMOGLOBIN: 13.73 G/DL
  LEUKOCYTE COUNT: 13.07 x10E3/uL
  LYMPHOCYTE: 92%
  MEAN CORPUSCULAR HEMOGLOBIN: 26.17 pg
  MEAN CORPUSCULAR HEMOGLOBIN CONCENTRATION: 40.3 G/DL
  MEAN CORPUSCULAR VOLUME: 64.87 fL
  MONOCYTE: 1.67%
  NEUTROPHIL: 6%
  NUCLEATED RED BLOOD CELLS: 0 /100WBC
  PLATELET COUNT: 1216.33 x10E3/uL
  ALANINE AMINOTRANSFERASE: 96.67 u/L
  ALBUMIN: 4.1 G/DL
  ALKALINE PHOSPHATASE: 435.33 u/L
  ASPARTATE AMINOTRANSFERASE: 106.67 u/L
  BLOOD UREA NITROGEN: 15 mg/dL
  CARBON DIOXIDE: 24.67 mmol/L
  CHLORIDE: 100.67 MEQ/L
  CHOLESTEROL: 75 mg/dL
  CREATINE PHOSPHOKINASE: 818.33 u/L
  CREATININE: 0.2 mg/dL
  GLUCOSE: 183 mg/dL
  LACTATE DEHYDROGENASE: 221.67 u/L
  LIPASE: 10.33 u/L
  PHOSPHORUS: 13.13 mg/dL
  POTASSIUM: 6.33 MEQ/L
  SODIUM: 143.27 MEQ/L
  TOTAL BILIRUBIN: 0.17 mg/dL
  TOTAL PROTEIN: 5.77 G/DL
  URIC ACID: 1.7 mg/dL
[2]
  ABSOLUTE BASOPHIL: 0 CELLS/uL
  ABSOLUTE EOSINOPHIL: 0 CELLS/uL
  ABSOLUTE LYMPHOCYTE: 16055.67 CELLS/uL
  ABSOLUTE MONOCYTE: 361 CELLS/uL
  ABSOLUTE SEGMENTED NEUTROPHIL: 1450 CELLS/uL
  BASOPHIL: 0%
  EOSINOPHIL: 0%
  ERYTHROCYTE COUNT: 5.93 x10E6/uL
  HEMATOCRIT: 37%
  HEMOGLOBIN: 14.63 G/DL
  LEUKOCYTE COUNT: 17.87 x10E3/uL
  LYMPHOCYTE: 90%
  MEAN CORPUSCULAR HEMOGLOBIN: 24.73 pg
  MEAN CORPUSCULAR HEMOGLOBIN CONCENTRATION: 39.57 G/DL
  MEAN CORPUSCULAR VOLUME: 62.47 fL
  MONOCYTE: 2%
  NEUTROPHIL: 8%
  NUCLEATED RED BLOOD CELLS: 0 /100WBC
  PLATELET COUNT: 1096 x10E3/uL
  ALANINE AMINOTRANSFERASE: 69 u/L
  ALBUMIN: 4.2 G/DL
  ALKALINE PHOSPHATASE: 431.33 u/L
  ASPARTATE AMINOTRANSFERASE: 90.67 u/L
  BLOOD UREA NITROGEN: 13 mg/dL
  CARBON DIOXIDE: 27.67 mmol/L
  CHLORIDE: 100.67 MEQ/L
  CHOLESTEROL: 70.67 mg/dL
  CREATINE PHOSPHOKINASE: 342 u/L
  CREATININE: 0.2 mg/dL
  GLUCOSE: 149.33 mg/dL
  LACTATE DEHYDROGENASE: 413 u/L
  LIPASE: 10.33 u/L
  PHOSPHORUS: 11.8 mg/dL
  POTASSIUM: 5.99 MEQ/L
  SODIUM: 145.2 MEQ/L
  TOTAL BILIRUBIN: 0.2 mg/dL
  TOTAL PROTEIN: 5.97 G/DL
  URIC ACID: 1.43 mg/dL
[3]
  ABSOLUTE BASOPHIL: 0 CELLS/uL
  ABSOLUTE EOSINOPHIL: 0 CELLS/uL
  ABSOLUTE LYMPHOCYTE: 12067.33 CELLS/uL
  ABSOLUTE MONOCYTE: 215.33 CELLS/uL
  ABSOLUTE SEGMENTED NEUTROPHIL: 450.67 CELLS/uL
  BASOPHIL: 0%
  EOSINOPHIL: 0%
  ERYTHROCYTE COUNT: 6.18 x10E6/uL
  HEMATOCRIT: 38.03%
  HEMOGLOBIN: 15.1 G/DL
  LEUKOCYTE COUNT: 12.73 x10E3/uL
  LYMPHOCYTE: 94.67%
  MEAN CORPUSCULAR HEMOGLOBIN: 24.5 pg
  MEAN CORPUSCULAR HEMOGLOBIN CONCENTRATION: 39.83 G/DL
  MEAN CORPUSCULAR VOLUME: 61.5 fL
  MONOCYTE: 1.67%
  NEUTROPHIL: 3.67%
  NUCLEATED RED BLOOD CELLS: 0 /100WBC
  PLATELET COUNT: 1233.67 x10E3/uL
  ALANINE AMINOTRANSFERASE: 57 u/L
  ALBUMIN: 4.07 G/DL
  ALKALINE PHOSPHATASE: 327 u/L
  ASPARTATE AMINOTRANSFERASE: 64.33 u/L
  BLOOD UREA NITROGEN: 11 mg/dL
  CARBON DIOXIDE: 24.33 mmol/L
  CHLORIDE: 103.67 MEQ/L
  CHOLESTEROL: 37 mg/dL
  CREATINE PHOSPHOKINASE: 603.67 u/L
  CREATININE: 0.29 mg/dL
  GLUCOSE: 368.33 mg/dL
  LACTATE DEHYDROGENASE: 191.67 u/L
  LIPASE: 8.67 u/L
  PHOSPHORUS: 12.53 mg/dL
  POTASSIUM: 6.44 MEQ/L
  SODIUM: 143.43 MEQ/L
  TOTAL BILIRUBIN: 0.13 mg/dL
  TOTAL PROTEIN: 5.6 G/DL
  URIC ACID: 2.13 mg/dL
[4]
  ABSOLUTE BASOPHIL: 0 CELLS/uL
  ABSOLUTE EOSINOPHIL: 57.33 CELLS/uL
  ABSOLUTE LYMPHOCYTE: 15898 CELLS/uL
  ABSOLUTE MONOCYTE: 55 CELLS/uL
  ABSOLUTE SEGMENTED NEUTROPHIL: 1089.67 CELLS/uL
  BASOPHIL: 0%
  EOSINOPHIL: 0.33%
  ERYTHROCYTE COUNT: 6.68 x10E6/uL
  HEMATOCRIT: 41.6%
  HEMOGLOBIN: 16.5 G/DL
  LEUKOCYTE COUNT: 17.1 x10E3/uL
  LYMPHOCYTE: 93%
  MEAN CORPUSCULAR HEMOGLOBIN: 24.7 pg
  MEAN CORPUSCULAR HEMOGLOBIN CONCENTRATION: 39.67 G/DL
  MEAN CORPUSCULAR VOLUME: 62.27 fL
  MONOCYTE: 0.33%
  NEUTROPHIL: 6.33%
  NUCLEATED RED BLOOD CELLS: 0 /100WBC
  PLATELET COUNT: 1161 x10E3/uL
  ALANINE AMINOTRANSFERASE: 71 u/L
  ALBUMIN: 4 G/DL
  ALKALINE PHOSPHATASE: 300.33 u/L
  ASPARTATE AMINOTRANSFERASE: 74.33 u/L
  BLOOD UREA NITROGEN: 12.33 mg/dL
  CARBON DIOXIDE: 26.67 mmol/L
  CHLORIDE: 99.67 MEQ/L
  CHOLESTEROL: 30.67 mg/dL
  CREATINE PHOSPHOKINASE: 501.33 u/L
  CREATININE: 0.29 mg/dL
  GLUCOSE: 338.33 mg/dL
  LACTATE DEHYDROGENASE: 199 u/L
  LIPASE: 8.67 u/L
  PHOSPHORUS: 11.53 mg/dL
  POTASSIUM: 6.37 MEQ/L
  SODIUM: 141.3 MEQ/L
  TOTAL BILIRUBIN: 0.2 mg/dL
  TOTAL PROTEIN: 5.53 G/DL
  URIC ACID: 2.07 mg/dL
